Values quoted from earlier work, collected in patent publication US20240360075A1, “N-SUBSTITUTED C6 CYCLYL CARBOXAMIDE COMPOUNDS AND USES THEREOF” (ALCON INC., priority 2023, published 2024).

Molecular target: TRPM8 (Mus musculus, UniProt Q8R4D5)
Details: TRPV1 antagonists, described by Behrendt et al.; read-out: IC50 to block the response of TRPM8 to menthol; cited from earlier work

Chain of TRPM8 (Mus musculus, UniProt Q8R4D5) (Q8R4D5 whole entry): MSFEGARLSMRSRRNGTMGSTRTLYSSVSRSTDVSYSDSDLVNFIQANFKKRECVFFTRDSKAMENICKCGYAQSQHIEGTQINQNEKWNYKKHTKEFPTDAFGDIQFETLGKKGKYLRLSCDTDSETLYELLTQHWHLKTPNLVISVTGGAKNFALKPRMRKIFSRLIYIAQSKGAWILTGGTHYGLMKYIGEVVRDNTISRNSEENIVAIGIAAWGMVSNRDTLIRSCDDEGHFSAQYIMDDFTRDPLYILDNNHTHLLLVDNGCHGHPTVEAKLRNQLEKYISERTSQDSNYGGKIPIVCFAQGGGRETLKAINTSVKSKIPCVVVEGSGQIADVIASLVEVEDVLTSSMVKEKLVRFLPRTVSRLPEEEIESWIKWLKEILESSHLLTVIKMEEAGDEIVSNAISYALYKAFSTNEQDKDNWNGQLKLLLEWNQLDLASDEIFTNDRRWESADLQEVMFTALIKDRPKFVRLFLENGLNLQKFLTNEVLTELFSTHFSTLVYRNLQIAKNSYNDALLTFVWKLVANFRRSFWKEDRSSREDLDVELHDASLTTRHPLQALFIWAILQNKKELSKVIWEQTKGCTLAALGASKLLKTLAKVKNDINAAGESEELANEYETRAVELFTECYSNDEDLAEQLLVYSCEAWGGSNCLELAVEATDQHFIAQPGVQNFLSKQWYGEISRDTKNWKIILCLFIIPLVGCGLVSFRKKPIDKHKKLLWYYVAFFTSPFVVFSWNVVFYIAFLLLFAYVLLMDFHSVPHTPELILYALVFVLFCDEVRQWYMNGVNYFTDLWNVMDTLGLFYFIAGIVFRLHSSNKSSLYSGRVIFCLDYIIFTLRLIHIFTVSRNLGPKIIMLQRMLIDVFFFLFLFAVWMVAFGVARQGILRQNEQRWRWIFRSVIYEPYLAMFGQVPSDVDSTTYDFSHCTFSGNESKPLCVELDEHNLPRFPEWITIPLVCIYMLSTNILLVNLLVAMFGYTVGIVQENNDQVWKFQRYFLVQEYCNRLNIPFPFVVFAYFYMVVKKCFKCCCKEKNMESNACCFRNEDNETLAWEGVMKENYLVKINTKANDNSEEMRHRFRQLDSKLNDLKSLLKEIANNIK

First: CC(C)(C)c1ccc(NC(=O)N2CCN(c3ncccc3Cl)CC2)cc1 [BCTC, 4-(3-Chloro-2-pyridinyl)-N-[4-(1,1-dimethylethyl)phenyl]-1-piperazinecarboxamide]
Second: CC(C)(C)c1ccc(NC(=S)N2CCN(c3ncccc3Cl)CC2)cc1 [thio-BCTC]
The IC50 of the first is 4.4-fold lower: 0.8 ± 1 µM for the first, 3.5 ± 1.1 µM for the second. The first is the more potent here.

For `Oc1cc2c(cc1O)CN(C(=S)NCCc1ccc(Cl)cc1)CCC2` [capsazepine], the IC50 is given as 18 ± 1.1 µM.

Molecular target: mouse cold-menthol receptor TRPM8 (Mus musculus, UniProt Q8R4D5)
Sequence (Q8R4D5 whole entry): as above
Details: described by Behrendt et al.; cited from earlier work

`CC1CCC(C(C)C)C(OCC(O)CO)C1` (stereo not shown) [cooling agent 10] and `CC1CCC(C(C)C)C2(C1)OCC(CO)O2` (stereo not shown) [frescolatMAG] are within error of each other in EC50: 6 ± 2.2 µM for the first, 4.8 ± 1.1 µM for the second.

`CC12CCC(CC1)C(C)(C)O2` [eucalyptol] and `CC(C)=CCC/C(C)=C/CO` [geraniol] are within error of each other in EC50: 7700 ± 2000 µM for the first, 5900 ± 1600 µM for the second.

Compared with `CC(CC=O)CCCC(C)(C)O` (stereo not shown) [hydroxycitronellal], `C=CC(C)(O)CCC=C(C)C` (stereo not shown) [linalool] is 2.9-fold lower in EC50: 19600 ± 2200 µM for the first, 6700 ± 2000 µM for the second. The second is the more potent here.

Molecular target: T1, TRPM8 (Homo sapiens, UniProt Q7Z2W7)
T1 construct: purchased Eurofins (Cerep) item #3316
T1 sequence (Q7Z2W7 whole entry): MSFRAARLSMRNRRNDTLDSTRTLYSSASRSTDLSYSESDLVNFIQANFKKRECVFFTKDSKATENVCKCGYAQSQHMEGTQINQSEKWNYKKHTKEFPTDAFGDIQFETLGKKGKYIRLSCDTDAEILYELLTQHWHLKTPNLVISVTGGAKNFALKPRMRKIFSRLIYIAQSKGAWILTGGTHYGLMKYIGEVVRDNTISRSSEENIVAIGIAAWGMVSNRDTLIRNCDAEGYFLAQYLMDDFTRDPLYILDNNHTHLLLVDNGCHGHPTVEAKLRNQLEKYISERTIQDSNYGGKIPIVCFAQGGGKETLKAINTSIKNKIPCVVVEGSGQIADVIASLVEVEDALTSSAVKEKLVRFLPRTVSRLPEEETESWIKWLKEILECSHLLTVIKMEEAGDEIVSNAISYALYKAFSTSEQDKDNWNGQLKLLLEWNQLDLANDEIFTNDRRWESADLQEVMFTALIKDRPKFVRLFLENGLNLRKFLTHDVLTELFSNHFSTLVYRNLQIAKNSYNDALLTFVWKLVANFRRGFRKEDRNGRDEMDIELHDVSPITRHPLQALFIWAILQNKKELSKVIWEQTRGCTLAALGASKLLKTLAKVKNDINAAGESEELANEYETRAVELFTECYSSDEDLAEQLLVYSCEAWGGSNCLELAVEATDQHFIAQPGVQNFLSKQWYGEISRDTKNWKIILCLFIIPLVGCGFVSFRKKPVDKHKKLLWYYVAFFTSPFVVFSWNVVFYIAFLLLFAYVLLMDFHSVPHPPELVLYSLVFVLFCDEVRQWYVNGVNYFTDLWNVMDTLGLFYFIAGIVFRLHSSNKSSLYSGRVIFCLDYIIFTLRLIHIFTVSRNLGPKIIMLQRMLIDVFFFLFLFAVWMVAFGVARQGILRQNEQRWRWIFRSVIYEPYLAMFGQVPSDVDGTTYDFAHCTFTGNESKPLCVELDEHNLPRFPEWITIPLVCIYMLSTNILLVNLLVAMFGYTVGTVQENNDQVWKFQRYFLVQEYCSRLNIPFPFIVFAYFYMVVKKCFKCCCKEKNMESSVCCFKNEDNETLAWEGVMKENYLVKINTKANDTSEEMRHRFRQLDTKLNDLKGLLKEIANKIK
Details: reported by the Eurofins website; cited from earlier work

For `O=C1NC(c2cccc([N+](=O)[O-])c2)=CCN1c1ccccc1O` [icilin], the EC50 is listed as 0.028 µM.
